Measurements as given in US20090093443A1, “COMBINATIONS OF 4- BROMO-2-(4-CHLOROPHENYL)-5-(TRIFLUOROMETHYL)-1H-PYRROLE-3-CARBONITRILE AND BIOCIDAL COMPOUNDS” (JASSEN PHARMACEUTICA N.V., priority 2006, published 2009).

System: animal fouling
Experiment: Exposure in the Oosterschelde of painted PVC boards
Conditions: for Coverage CO (percentage coverage) / Dry weight Dw (dry weight of fouling organisms) / Fresh weight Fw (fresh weight of fouling organisms): 18 weeks exposure, each active 2.78% in dry paint film; for Coverage CO (percentage coverage): mean of front and backsides of panels; for Dry weight Dw (dry weight of fouling organisms) / Fresh weight Fw (fresh weight of fouling organisms): total of front and backsides; for Coverage % Eo (observed efficacy) / Dry weight % Eo (observed efficacy) / Fresh weight % Eo (observed efficacy): fouling inhibition vs control, 18 weeks, each active 2.78% in dry paint; for Coverage % Eo (observed efficacy): by coverage; for Dry weight % Eo (observed efficacy): by dry weight; for Fresh weight % Eo (observed efficacy): by fresh weight
Description: • Test model: exposure in the Oosterschelde of painted PVC boards • Name of the primary compound: 4-bromo-2-(4-chloro-phenyl)-5-(trifluoromethyl)-1H-pyrrole-3-carbonitrile as component (I) • Name of the combination partners: capsaicine as component (II-d); • clonidine as component (II-e); • zosteric acid as component (II-r). • Test formulations: Paint formulation comprising xylene (47.7%), light aromatic solvent naphtha (CAS 64742-95-6) (16.2%), propylene oxide (0.06%), and zinc oxid (2.24%). Paint was diluted with 10% xylene to obtain the wet paint which was applied to the panels. • Dosage: Individual test compounds were added at a concentration of 1.8% by weight in the wet paint, resulting in 2.78% by weight in the dry paint film. • Test specimens: PVC boards with dimensions of 10×2×0.5 cm. […] Percentage coverage of the panels by fouling organisms as estimated visually. • 2. Fresh weight of fouling organisms on panels in gram. • 3. Dry weight of fouling organisms on panels in gram. Synergy evaluation: Synergy was tested according to the method of Limpel (Limpel, L. E., Schuldt, P. H., and Lamont, D. Weed Control Conf. 16: 48-53, 1962) as described in Colby (Colby, S. R., Weeds 15: 20-22, 1967) and Richer (Richer, D. L., Pesticide Science 19: 309-315, 1987). The single active ingredients were applied at a concentration of 2.78% in the dried coating. In the combinations, both actives were applied at 2.78%, resulting in […] of total active ingredient.

| Compound | Coverage CO (percentage coverage) [%] | Dry weight Dw (dry weight of fouling organisms) [gram] | Fresh weight Fw (fresh weight of fouling organisms) [gram] | Coverage % Eo (observed efficacy) [%] | Dry weight % Eo (observed efficacy) [%] | Fresh weight % Eo (observed efficacy) [%] |
| --- | --- | --- | --- | --- | --- | --- |
| N#Cc1c(-c2ccc(Cl)cc2)[nH]c(C(F)(F)F)c1Br [(I), 4-bromo-2-(4-chlorophenyl)-5-(trifluoromethyl)-1H-pyrrole-3-carbonitrile] | 42.5 | 1.94 | 2.90 | 19.8 | 37.9 | 36.0 |
| COc1cc(CNC(=O)CCCC/C=C/C(C)C)ccc1O [(II-d), capsaicine] | 65.0 | 3.58 | 5.50 | −22.6 | −14.6 | −21.3 |
| Clc1cccc(Cl)c1N=C1NCCN1 [(II-e), clonidine] | 72.5 | 3.92 | 6.10 | −36.8 | −25.6 | −33.8 |
| O=C(O)/C=C/c1ccc(OS(=O)(=O)O)cc1 [(II-r), zosteric acid] | 57.5 | 2.05 | 5.40 | −8.5 | 34.5 | −18.4 |
